What follows are molecules tested on rat small-intestinal brush border membrane vesicles (assay: Inhibitory effect on 33PO4 uptake into rat small-intestinal brush border membrane vesicles (rapid filtration method)). Conditions: 1 µM test compound; 33PO4 uptake into rat small-intestinal BBMVs, 60 seconds.
Type: biochemical, Wistar female rat
Description: The ^33PO4 transport activity of the small-intestinal BBMVs was determined by the rapid filtration method. […] Then, ice-cold buffer C (110 mM NaCl, 1 mM KH2PO4, and 10 mM HEPES (pH 7.5)) was added to each reaction mixture, which was immediately suction-filtered through a Millipore filter. The filter was washed with buffer C, and each sample was then dissolved in a liquid scintillator. The amount of ^33PO4 uptake into BBMVs was measured using a liquid scintillation counter. […]
For “1-[(3-Fluorophenyl)methyl]-4-hydroxy-4a-methyl-N-[5-methyl-2-(trifluoromethyl)furan-3-yl]-2-oxo-5,6,7,8-tetrahydropyrido[1,2-b]pyridazine-3-carboxamide [Example 18]”, the “Rate of uptake inhibition (%) (1 µM)” value was 12%.
For Cc1cc(NC(=O)C2=C(O)[C@@H]3CCCN3N(Cc3cccc(F)c3)C2=O)c(C(F)(F)F)o1 [Example 1, (4aS)-1-[(3-Fluorophenyl)methyl]-4-hydroxy-N-[5-methyl-2-(trifluoromethyl)furan-3-yl]-2-oxo-4a,5,6,7-tetrahydropyrrolo[1,2-b]pyridazine-3-carboxamide], the “Rate of uptake inhibition (%) (1 µM)” value was 28%.
In the case of Cc1cc(NC(=O)C2=C(O)[C@H]3CCCN3N(Cc3cccc(F)c3)C2=O)c(C(F)(F)F)o1 [Example 2, (4aR)-1-[(3-Fluorophenyl)methyl]-4-hydroxy-N-[5-methyl-2-(trifluoromethyl)furan-3-yl]-2-oxo-4a,5,6,7-tetrahydropyrrolo[1,2-b]pyridazine-3-carboxamide], the “Rate of uptake inhibition (%) (1 µM)” value is reported as 19%.
With Cc1cc(NC(=O)C2=C(O)[C@@H]3CC(C)(C)CN3N(Cc3cccc(F)c3)C2=O)c(C(F)(F)F)o1 [Example 3, (4aS)-1-[(3-Fluorophenyl)methyl]-4-hydroxy-6,6-dimethyl-N-[5-methyl-2-(trifluoromethyl)furan-3-yl]-2-oxo-5,7-dihydro-4aH-pyrrolo[1,2-b]pyridazine-3-carboxamide] the “Rate of uptake inhibition (%) (1 µM)” value was 11%.
In the case of Cc1cc(NC(=O)C2=C(O)[C@@H]3CCC(C)(C)N3N(Cc3cccc(F)c3)C2=O)c(C(F)(F)F)o1 [Example 4, (4aS)-1-[(3-Fluorophenyl)methyl]-4-hydroxy-7,7-dimethyl-N-[5-methyl-2-(trifluoromethyl)furan-3-yl]-2-oxo-5,6-dihydro-4aH-pyrrolo[1,2-b]pyridazine-3-carboxamide], the “Rate of uptake inhibition (%) (1 µM)” value is reported as 32%.
For Cc1cc(NC(=O)C2=C(O)[C@@]3(C)CCCN3N(Cc3cccc(F)c3F)C2=O)c(C(F)(F)F)o1 [Example 7], the “Rate of uptake inhibition (%) (1 µM)” value was 69%.
With Cc1cc(NC(=O)C2=C(O)[C@]3(C)CCCN3N(Cc3cccc(F)c3)C2=O)c(C(F)(F)F)o1 [Example 8] the “Rate of uptake inhibition (%) (1 µM)” value was 37%.
In the case of Cc1cc(NC(=O)C2=C(O)[C@H]3CCCCN3N(Cc3cccc(F)c3)C2=O)c(C(F)(F)F)o1 [Example 15, (4aR)-1-[(3-Fluorophenyl)methyl]-4-hydroxy-N-[5-methyl-2-(tritluoromethyl)furan-3-yl]-2-oxo-5,6,7,8-tetrahydro-4aH-pyrido[1,2-b]pyridazine-3-carboxamide], the “Rate of uptake inhibition (%) (1 µM)” value is reported as 42%.
With Cc1cc(NC(=O)C2=C(O)[C@@H]3CCCCN3N(Cc3cccc(F)c3)C2=O)c(C(F)(F)F)o1 [Example 16] the “Rate of uptake inhibition (%) (1 µM)” value was 38%.
In the case of Cc1cc(NC(=O)C2=C(O)[C@@H]3CCCCN3N(Cc3c(F)c(F)cc4cc[nH]c34)C2=O)c(C(F)(F)F)o1 [Example 17, (4aS)-1-[(5,6-Difluoro-1H-indol-7-yl)methyl]-4-hvdroxy-N-[5-methyl-2-(trifluoromethyl)furan-3-yl]-2-oxo-5,6,7,8-tetrahydro-4aH-pyrido[1,2-b]pyridazine-3-carboxamide], the “Rate of uptake inhibition (%) (1 µM)” value is reported as 33%.
CCC12CCCCN1N(Cc1cccc(F)c1F)C(=O)C(C(=O)Nc1cc(C)oc1C(F)(F)F)=C2O (stereo not shown) [Example 19, 1-[2,3-(Difluorophenyl)methyl]-4a-ethyl-4-hydroxy-N-[5-methyl-2-(trifluoromethyl)furan-3-yl]-2-oxo-5,6,7,8-tetrahydropyrido[1,2-b]pyridazine-3-carboxamide] was tested, and the “Rate of uptake inhibition (%) (1 µM)” value was 41%.
With C[C@]12CCCN1N(Cc1cccc(F)c1F)C(=O)C(C(=O)Nc1ccc(C(F)(F)F)cc1-c1cc(C(F)(F)F)ncn1)=C2O [Example 21, (4aR)-1-[(2,3-Difluorophenyl)methyl]-4-hydroxy-4a-methyl-2-oxo-N-[4-(trifluoromethyl)-2-[6-(trifluoromethyl)pyrimidin-4-yl]phenyl]-6,7-dihydro-5H-pyrrolo[1,2-b]pyridazine-3-carboxamide] the “Rate of uptake inhibition (%) (1 µM)” value was 61%.
C[C@]12CCCN1N(Cc1cccc(F)c1F)C(=O)C(C(=O)Nc1ccc(C(F)(F)F)cc1-c1ncnc(C#N)c1Cl)=C2O [Example 23] was tested, and the “Rate of uptake inhibition (%) (1 µM)” value was 84%.
In the case of Cc1c(C#N)ncnc1-c1cc(C(F)(F)F)ccc1NC(=O)C1=C(O)[C@@]2(C)CCCN2N(Cc2cccc(F)c2F)C1=O [Example 24], the “Rate of uptake inhibition (%) (1 µM)” value is reported as 76%.
For COc1c(C#N)ncnc1-c1cc(C(F)(F)F)ccc1NC(=O)C1=C(O)[C@@]2(C)CCCN2N(Cc2cccc(F)c2F)C1=O [Example 25], the “Rate of uptake inhibition (%) (1 µM)” value was 82%.
In the case of CCCCCN1C(=O)C(C(=O)Nc2ccc(C(F)(F)F)cc2-c2ccc(C(F)(F)F)nc2)=C(O)[C@@]2(C)CCCN12 [Example 26], the “Rate of uptake inhibition (%) (1 µM)” value is reported as 72%.
For C[C@]12CCCN1N(Cc1cccc([N+](=O)[O-])c1)C(=O)C(C(=O)Nc1ccc(Br)c(F)c1)=C2O [Example 27], the “Rate of uptake inhibition (%) (1 µM)” value was 76%.
C[C@]12CCCN1N(Cc1cccc(F)c1F)C(=O)C(C(=O)Nc1ccc(Br)c(F)c1)=C2O [Example 28] was tested, and the “Rate of uptake inhibition (%) (1 µM)” value was 72%.
C[C@]12CCCN1N(Cc1cccc(F)c1F)C(=O)C(C(=O)Nc1cc(F)c(Br)c(F)c1)=C2O [Example 29] was tested, and the “Rate of uptake inhibition (%) (1 µM)” value was 75%.
CC1(C)CC[C@]2(C)C(O)=C(C(=O)Nc3cc(C(F)(F)F)ccc3-c3ccc(C(F)(F)F)nc3)C(=O)N(Cc3cccc(F)c3F)N12 [Example 63] was tested, and the “Rate of uptake inhibition (%) (1 µM)” value was 72%.
In the case of C[C@]12CCCN1N(Cc1cccc(F)c1F)C(=O)C(C(=O)Nc1ccc(Br)cc1-c1cc(C(F)(F)F)ncn1)=C2O [Example 64], the “Rate of uptake inhibition (%) (1 µM)” value is reported as 77%.
With COC(=O)c1cccc(-c2cc(C(F)(F)F)ccc2NC(=O)C2=C(O)[C@@]3(C)CCCN3N(Cc3cccc(F)c3F)C2=O)c1OC [Example 65] the “Rate of uptake inhibition (%) (1 µM)” value was 98%.
In the case of CCOc1cccc(-c2cc(C(F)(F)F)ccc2NC(=O)C2=C(O)[C@@]3(C)CCCN3N(Cc3cccc(F)c3F)C2=O)c1OC [Example 66], the “Rate of uptake inhibition (%) (1 µM)” value is reported as 96%.
With C[C@]12CCCN1N(Cc1cccc(F)c1F)C(=O)C(C(=O)Nc1ccc(C(F)(F)F)cc1-c1cnc(Cl)nc1)=C2O [Example 67] the “Rate of uptake inhibition (%) (1 µM)” value was 91%.
C[C@]12CCCN1N(Cc1cccc(F)c1F)C(=O)C(C(=O)Nc1ccc(C(F)(F)F)cc1-c1cnc(Cl)c(C#N)c1)=C2O [Example 68, (4aR)-N-[2-(6-Chloro-5-cyanopyridin-3-yl)-4-(trifluoromethyl)phenyl]-1-[(2,3-difluorophenyl)methyl]-4-hydroxy-4a-methyl-2-oxo-6,7-dihydro-5H-pyrrolo[1,2-b]pyridazine-3-carboxamide] was tested, and the “Rate of uptake inhibition (%) (1 µM)” value was 84%.
Cc1c(Cl)ncnc1-c1cc(C(F)(F)F)ccc1NC(=O)C1=C(O)[C@@]2(C)CCCN2N(Cc2cccc(F)c2F)C1=O [Example 69] was tested, and the “Rate of uptake inhibition (%) (1 µM)” value was 74%.
With C[C@]12CCCN1N(Cc1cccc(F)c1F)C(=O)C(C(=O)Nc1ccc(C(F)(F)F)cc1-c1ncnc(Cl)c1Cl)=C2O [Example 70] the “Rate of uptake inhibition (%) (1 µM)” value was 79%.
For CN(C)S(=O)(=O)c1ccc(-c2cc(C(F)(F)F)ccc2NC(=O)C2=C(O)[C@@]3(C)CCCN3N(Cc3cccc(F)c3F)C2=O)s1 [Example 71], the “Rate of uptake inhibition (%) (1 µM)” value was 97%.
In the case of COc1ncc(-c2cc(C(F)(F)F)ccc2NC(=O)C2=C(O)[C@@]3(C)CCCN3N(Cc3cccc(F)c3F)C2=O)c(OC)n1 [Example 72], the “Rate of uptake inhibition (%) (1 µM)” value is reported as 92%.
With C[C@]12CCCN1N(Cc1cccc(F)c1F)C(=O)C(C(=O)Nc1ccc(C(F)(F)F)cc1-c1cnc(Br)cn1)=C2O [Example 73] the “Rate of uptake inhibition (%) (1 µM)” value was 74%.
For C[C@]12CCCN1N(Cc1cccc(F)c1F)C(=O)C(C(=O)Nc1ccc(C(F)(F)F)cc1-c1cnc(Cl)cn1)=C2O [Example 74], the “Rate of uptake inhibition (%) (1 µM)” value was 82%.
In the case of C[C@]12CCCN1N(Cc1cccc(F)c1F)C(=O)C(C(=O)Nc1ccc(Br)cc1F)=C2O [Example 75], the “Rate of uptake inhibition (%) (1 µM)” value is reported as 74%.
In the case of C[C@]12CCCN1N(Cc1cccc(F)c1F)C(=O)C(C(=O)Nc1ccc(Cl)cc1F)=C2O [Example 76], the “Rate of uptake inhibition (%) (1 µM)” value is reported as 77%.
C[C@]12CCCN1N(Cc1cccc(F)c1F)C(=O)C(C(=O)Nc1ccc(Br)cc1)=C2O [Example 77] was tested, and the “Rate of uptake inhibition (%) (1 µM)” value was 80%.
For C[C@]12CCCN1N(Cc1cccc(F)c1F)C(=O)C(C(=O)Nc1ccc(Br)cn1)=C2O [Example 78], the “Rate of uptake inhibition (%) (1 µM)” value was 71%.
With C[C@]12CCCN1N(Cc1cccc(F)c1F)C(=O)C(C(=O)Nc1ccc(Cl)cn1)=C2O [Example 79] the “Rate of uptake inhibition (%) (1 µM)” value was 71%.
COc1cc(C)c(-c2cc(C(F)(F)F)ccc2NC(=O)C2=C(O)[C@@]3(C)CCCN3N(Cc3cccc(F)c3F)C2=O)cn1 [Example 80] was tested, and the “Rate of uptake inhibition (%) (1 µM)” value was 75%.
With COc1cncc(-c2cc(C(F)(F)F)ccc2NC(=O)C2=C(O)[C@@]3(C)CCCN3N(Cc3cccc(F)c3F)C2=O)c1 [Example 81] the “Rate of uptake inhibition (%) (1 µM)” value was 74%.
In the case of C[C@]12CCCN1N(Cc1cccc(F)c1F)C(=O)C(C(=O)Nc1ccc(C(F)(F)F)cc1-c1cncc(C#N)c1)=C2O [Example 82], the “Rate of uptake inhibition (%) (1 µM)” value is reported as 100%.
In the case of C[C@]12CCCN1N(Cc1cccc(F)c1F)C(=O)C(C(=O)Nc1ccc(C(F)(F)F)cc1-c1cnc3ccccc3c1)=C2O [Example 83], the “Rate of uptake inhibition (%) (1 µM)” value is reported as 90%.
With C[C@]12CCCN1N(Cc1cccc(F)c1F)C(=O)C(C(=O)Nc1ccc(C(F)(F)F)cc1-c1cc(Cl)cnc1Cl)=C2O [Example 84] the “Rate of uptake inhibition (%) (1 µM)” value was 91%.
With C[C@]12CCCN1N(Cc1cccc(F)c1F)C(=O)C(C(=O)Nc1ccc(C(F)(F)F)cc1-c1ccc(C(F)(F)F)nc1Br)=C2O [Example 85] the “Rate of uptake inhibition (%) (1 µM)” value was 71%.

Same assay, conditions: 1 µM test compound; 33PO4 uptake into rat small-intestinal BBMVs, 60 seconds; 1 µM
For “6-[[2,3-Difluoro-4-[1-(2-methoxyethyl)azetidin-3-yl]oxyphenyl]methyl]-9-hydroxy-5-methyl-7-oxo-N-[4-(trifluoromethyl)-2-[6-(trifluoromethyl)pyrimidin-4-yl]phenyl]-5,6-diazaspiro[3.5]non-8-ene-8-carboxamide [Example 413]”, the “Rate of uptake inhibition (%) (1 µM)” value was 34%.

Source: patent publication EP2975030B1, “DIHYDROPYRIDAZINE-3,5-DIONE DERIVATIVE” (Chugai Seiyaku Kabushiki Kaisha, priority 2013, dated 2014)
